Assay [1] addresses T1, Scaffold protein ILK (Homo sapiens, UniProt Q13418).
T1 sequence (Q13418 whole entry): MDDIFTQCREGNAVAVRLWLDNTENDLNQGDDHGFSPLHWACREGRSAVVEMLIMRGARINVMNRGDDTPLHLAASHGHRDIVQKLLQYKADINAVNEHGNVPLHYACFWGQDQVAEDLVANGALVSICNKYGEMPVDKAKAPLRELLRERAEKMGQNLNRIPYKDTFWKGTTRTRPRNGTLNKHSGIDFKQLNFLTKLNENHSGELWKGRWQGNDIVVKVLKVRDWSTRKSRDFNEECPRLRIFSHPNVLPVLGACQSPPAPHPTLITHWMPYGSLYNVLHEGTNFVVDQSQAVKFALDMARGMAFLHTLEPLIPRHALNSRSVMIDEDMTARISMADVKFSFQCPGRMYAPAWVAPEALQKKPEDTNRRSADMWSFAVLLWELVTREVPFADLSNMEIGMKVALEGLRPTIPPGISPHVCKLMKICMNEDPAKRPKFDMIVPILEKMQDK

The target in assay [2] is Rho-associated protein kinase 1 (Homo sapiens, UniProt Q13464).
For assay [3], the target named is Maternal embryonic leucine zipper kinase (Homo sapiens, UniProt Q14680).
Maternal embryonic leucine zipper kinase, sequence (Q14680 whole entry): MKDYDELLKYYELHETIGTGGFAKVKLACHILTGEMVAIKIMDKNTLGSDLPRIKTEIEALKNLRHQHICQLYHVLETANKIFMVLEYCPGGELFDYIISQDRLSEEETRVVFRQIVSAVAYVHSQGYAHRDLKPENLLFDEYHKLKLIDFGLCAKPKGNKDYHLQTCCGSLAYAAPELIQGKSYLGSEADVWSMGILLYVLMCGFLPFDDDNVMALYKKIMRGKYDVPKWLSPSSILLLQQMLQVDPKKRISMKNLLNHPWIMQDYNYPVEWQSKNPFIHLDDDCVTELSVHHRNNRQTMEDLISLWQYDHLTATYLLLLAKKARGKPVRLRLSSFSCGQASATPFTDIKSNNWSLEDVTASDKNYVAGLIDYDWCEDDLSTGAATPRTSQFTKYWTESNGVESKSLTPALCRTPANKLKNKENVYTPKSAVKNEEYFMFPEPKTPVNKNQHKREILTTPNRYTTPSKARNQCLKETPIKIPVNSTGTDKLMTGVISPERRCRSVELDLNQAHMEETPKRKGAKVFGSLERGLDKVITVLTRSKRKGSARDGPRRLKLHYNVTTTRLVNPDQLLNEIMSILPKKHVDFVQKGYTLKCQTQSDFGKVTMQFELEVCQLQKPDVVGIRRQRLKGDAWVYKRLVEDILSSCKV
Assay [4] deals with T2, Dynamin-like GTPase OPA1, mitochondrial (Homo sapiens, UniProt O60313).
T2 sequence (O60313 whole entry): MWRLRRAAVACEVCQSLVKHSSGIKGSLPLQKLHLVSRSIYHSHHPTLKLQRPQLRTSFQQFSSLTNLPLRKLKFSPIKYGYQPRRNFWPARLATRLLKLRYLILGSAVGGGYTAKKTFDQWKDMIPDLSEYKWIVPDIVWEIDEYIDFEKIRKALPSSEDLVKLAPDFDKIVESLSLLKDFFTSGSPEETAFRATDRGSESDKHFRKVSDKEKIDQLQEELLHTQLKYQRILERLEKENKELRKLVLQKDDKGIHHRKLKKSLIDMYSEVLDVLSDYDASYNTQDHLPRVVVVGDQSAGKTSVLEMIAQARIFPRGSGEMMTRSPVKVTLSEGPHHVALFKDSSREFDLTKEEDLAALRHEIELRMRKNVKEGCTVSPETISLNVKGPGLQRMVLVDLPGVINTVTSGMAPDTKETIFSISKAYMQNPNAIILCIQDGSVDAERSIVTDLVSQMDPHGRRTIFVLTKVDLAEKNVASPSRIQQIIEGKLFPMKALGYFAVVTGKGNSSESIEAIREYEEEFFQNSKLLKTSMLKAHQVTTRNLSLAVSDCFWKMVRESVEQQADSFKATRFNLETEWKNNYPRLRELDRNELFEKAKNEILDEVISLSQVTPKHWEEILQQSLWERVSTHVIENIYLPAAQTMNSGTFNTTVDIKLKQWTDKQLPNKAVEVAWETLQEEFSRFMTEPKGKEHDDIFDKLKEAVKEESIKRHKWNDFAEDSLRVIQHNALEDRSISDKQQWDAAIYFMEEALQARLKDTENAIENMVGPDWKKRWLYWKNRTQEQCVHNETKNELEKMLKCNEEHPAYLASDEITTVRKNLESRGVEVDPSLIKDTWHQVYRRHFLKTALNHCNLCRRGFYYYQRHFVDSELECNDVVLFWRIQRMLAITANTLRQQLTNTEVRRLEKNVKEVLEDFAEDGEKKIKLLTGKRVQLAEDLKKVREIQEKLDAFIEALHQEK

The target in assay [5] is Cyclin-dependent kinase 17 (Homo sapiens, UniProt Q00537).
Cyclin-dependent kinase 17, sequence (Q00537 whole entry): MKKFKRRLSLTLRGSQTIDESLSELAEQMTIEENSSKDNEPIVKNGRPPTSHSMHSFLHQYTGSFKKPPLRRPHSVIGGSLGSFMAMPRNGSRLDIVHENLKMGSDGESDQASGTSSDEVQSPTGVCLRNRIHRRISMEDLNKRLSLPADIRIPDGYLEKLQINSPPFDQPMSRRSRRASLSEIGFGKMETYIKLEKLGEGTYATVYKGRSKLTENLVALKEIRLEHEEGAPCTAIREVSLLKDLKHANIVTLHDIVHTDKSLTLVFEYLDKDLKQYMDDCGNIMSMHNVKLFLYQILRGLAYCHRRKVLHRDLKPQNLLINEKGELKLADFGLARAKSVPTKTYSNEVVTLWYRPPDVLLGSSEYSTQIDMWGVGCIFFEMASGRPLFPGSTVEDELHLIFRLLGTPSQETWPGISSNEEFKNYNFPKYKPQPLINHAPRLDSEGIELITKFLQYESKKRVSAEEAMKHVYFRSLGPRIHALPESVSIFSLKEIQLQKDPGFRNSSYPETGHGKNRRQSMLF
Assay [6] concerns the target Ribosomal protein S6 kinase alpha-6 (Homo sapiens, UniProt Q9UK32).
The target in assay [7] is Mitotic checkpoint serine/threonine-protein kinase BUB1 (Homo sapiens, UniProt O43683).
Assay [8] concerns the target T3, Non-receptor tyrosine-protein kinase TNK1 (Homo sapiens, UniProt Q13470).
T3 sequence (Q13470 whole entry): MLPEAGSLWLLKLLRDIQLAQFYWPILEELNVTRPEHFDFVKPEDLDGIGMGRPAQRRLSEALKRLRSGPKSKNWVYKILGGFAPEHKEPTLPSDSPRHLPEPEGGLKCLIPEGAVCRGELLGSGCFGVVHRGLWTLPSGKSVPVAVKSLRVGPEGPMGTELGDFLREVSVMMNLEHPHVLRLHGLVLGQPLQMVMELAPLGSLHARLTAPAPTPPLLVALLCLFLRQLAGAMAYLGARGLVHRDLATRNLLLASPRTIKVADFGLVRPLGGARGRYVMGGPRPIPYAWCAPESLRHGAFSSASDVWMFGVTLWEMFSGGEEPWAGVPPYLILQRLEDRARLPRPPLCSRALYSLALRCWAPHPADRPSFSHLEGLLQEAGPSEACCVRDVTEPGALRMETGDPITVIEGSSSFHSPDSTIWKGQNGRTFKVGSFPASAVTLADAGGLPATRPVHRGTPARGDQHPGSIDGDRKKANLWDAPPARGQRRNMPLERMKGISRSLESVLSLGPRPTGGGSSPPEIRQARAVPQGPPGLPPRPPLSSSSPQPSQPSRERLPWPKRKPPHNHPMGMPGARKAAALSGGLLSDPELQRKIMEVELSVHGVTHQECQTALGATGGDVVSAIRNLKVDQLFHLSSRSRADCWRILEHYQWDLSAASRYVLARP

Assay [9] has as its target S-adenosylmethionine synthase isoform type-2 (Homo sapiens, UniProt P31153).
Assay [10] deals with Adenosine kinase (Homo sapiens, UniProt P55263).
The target of assay [11] is STE20-like serine/threonine-protein kinase (Homo sapiens, UniProt Q9H2G2).
Assay [12] has as its target Serine/threonine-protein kinase 26 (Homo sapiens, UniProt Q9P289).
Assay [13] addresses Mitogen-activated protein kinase kinase kinase kinase 4 (Homo sapiens, UniProt O95819).
Assay [14] has as its target Hepatocyte growth factor receptor (Homo sapiens, UniProt P08581).
In assay [15] the target is Non-receptor tyrosine-protein kinase TYK2 (Homo sapiens, UniProt P29597).
Non-receptor tyrosine-protein kinase TYK2, sequence (P29597 whole entry): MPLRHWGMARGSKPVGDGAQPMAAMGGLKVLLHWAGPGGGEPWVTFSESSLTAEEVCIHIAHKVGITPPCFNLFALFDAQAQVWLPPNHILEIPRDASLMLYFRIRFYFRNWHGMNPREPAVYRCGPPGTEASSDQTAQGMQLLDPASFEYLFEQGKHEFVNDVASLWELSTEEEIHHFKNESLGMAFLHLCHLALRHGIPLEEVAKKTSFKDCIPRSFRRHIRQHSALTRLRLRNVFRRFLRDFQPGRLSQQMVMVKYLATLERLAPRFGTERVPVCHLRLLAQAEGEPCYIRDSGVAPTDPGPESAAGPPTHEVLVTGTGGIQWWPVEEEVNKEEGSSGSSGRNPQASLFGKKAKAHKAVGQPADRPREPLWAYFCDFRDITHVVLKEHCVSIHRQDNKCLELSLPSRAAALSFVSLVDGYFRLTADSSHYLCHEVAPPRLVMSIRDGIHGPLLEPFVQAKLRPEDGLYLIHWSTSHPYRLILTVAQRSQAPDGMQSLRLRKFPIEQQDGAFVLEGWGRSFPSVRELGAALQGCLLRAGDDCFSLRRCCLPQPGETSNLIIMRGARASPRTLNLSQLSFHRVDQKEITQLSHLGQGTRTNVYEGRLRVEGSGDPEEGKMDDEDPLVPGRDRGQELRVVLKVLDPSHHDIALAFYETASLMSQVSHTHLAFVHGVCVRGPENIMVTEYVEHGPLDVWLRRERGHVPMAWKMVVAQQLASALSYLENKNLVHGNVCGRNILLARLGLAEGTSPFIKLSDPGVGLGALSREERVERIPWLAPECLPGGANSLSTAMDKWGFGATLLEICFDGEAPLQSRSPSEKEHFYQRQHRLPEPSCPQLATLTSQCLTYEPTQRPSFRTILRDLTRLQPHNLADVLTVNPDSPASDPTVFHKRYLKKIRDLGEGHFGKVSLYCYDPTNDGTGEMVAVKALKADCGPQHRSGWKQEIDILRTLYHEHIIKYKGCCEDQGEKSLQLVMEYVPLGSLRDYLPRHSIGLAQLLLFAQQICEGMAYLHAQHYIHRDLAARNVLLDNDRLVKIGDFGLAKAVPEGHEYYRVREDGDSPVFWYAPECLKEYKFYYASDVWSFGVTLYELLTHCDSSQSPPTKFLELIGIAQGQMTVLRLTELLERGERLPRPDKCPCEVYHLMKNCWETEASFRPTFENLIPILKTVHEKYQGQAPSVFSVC
Assay [16] addresses 5'-AMP-activated protein kinase catalytic subunit alpha-1 (Homo sapiens, UniProt Q13131).
Assay [17] addresses Proto-oncogene tyrosine-protein kinase Src (Homo sapiens, UniProt P12931).
Assay [18] deals with Dual specificity protein kinase CLK1 (Homo sapiens, UniProt P49759).
Dual specificity protein kinase CLK1, sequence (P49759 whole entry): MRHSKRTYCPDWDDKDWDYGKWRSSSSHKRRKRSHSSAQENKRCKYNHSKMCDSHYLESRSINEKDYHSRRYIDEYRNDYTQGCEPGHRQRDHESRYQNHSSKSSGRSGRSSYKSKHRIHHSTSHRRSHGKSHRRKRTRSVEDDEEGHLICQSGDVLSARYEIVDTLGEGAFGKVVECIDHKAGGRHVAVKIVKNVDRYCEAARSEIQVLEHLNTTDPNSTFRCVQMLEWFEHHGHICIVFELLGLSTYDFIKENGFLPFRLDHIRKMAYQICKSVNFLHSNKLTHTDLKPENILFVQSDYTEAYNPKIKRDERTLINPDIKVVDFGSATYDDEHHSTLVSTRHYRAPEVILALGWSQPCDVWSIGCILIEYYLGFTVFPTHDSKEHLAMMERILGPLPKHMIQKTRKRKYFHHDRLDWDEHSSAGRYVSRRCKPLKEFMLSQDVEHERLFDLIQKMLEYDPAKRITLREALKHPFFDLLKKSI

Activity calls are given as the source filed them. Rule as the data show it, for most assays here: actives have a measured Kd and inactives only a lower limit.

By Kd is commonly meant the equilibrium constant for the complex coming apart.
Also: in the data inactive means no Kd found up to 30 µM.

Mitogen-activated protein kinase kinase kinase kinase 4, sequence (O95819 whole entry): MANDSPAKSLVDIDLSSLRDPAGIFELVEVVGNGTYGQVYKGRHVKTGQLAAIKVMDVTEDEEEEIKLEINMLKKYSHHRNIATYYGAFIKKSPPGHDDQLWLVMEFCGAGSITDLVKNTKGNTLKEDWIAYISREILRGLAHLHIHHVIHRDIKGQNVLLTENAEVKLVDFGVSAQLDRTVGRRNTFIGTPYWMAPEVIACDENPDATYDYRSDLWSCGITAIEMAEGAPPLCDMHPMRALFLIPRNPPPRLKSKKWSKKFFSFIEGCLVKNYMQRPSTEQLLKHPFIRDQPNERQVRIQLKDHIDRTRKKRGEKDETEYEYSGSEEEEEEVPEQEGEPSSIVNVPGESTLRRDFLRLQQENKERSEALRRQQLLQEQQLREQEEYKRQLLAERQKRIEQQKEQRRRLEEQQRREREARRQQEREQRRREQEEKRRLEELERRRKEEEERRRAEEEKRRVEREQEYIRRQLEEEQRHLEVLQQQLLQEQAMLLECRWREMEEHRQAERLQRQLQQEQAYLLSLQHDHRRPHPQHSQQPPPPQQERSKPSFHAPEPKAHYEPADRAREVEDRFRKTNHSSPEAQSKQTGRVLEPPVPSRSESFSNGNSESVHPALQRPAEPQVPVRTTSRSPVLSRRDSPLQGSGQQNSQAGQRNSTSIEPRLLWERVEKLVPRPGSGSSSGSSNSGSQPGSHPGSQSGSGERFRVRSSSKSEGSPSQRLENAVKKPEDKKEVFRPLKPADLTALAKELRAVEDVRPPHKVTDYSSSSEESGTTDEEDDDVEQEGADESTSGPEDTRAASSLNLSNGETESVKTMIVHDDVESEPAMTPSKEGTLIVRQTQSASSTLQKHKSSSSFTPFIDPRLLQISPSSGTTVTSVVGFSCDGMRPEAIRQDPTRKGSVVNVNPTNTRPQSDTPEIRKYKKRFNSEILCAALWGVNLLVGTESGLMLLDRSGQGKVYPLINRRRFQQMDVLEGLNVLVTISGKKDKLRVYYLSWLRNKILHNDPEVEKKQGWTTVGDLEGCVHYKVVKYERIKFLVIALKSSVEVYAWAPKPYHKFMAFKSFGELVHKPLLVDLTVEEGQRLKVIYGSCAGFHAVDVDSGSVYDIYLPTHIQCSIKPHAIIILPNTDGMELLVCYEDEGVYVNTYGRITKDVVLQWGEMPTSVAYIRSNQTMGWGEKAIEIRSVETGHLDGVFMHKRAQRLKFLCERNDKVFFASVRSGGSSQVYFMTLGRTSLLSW
Proto-oncogene tyrosine-protein kinase Src, sequence (P12931 2-536 limits assumed): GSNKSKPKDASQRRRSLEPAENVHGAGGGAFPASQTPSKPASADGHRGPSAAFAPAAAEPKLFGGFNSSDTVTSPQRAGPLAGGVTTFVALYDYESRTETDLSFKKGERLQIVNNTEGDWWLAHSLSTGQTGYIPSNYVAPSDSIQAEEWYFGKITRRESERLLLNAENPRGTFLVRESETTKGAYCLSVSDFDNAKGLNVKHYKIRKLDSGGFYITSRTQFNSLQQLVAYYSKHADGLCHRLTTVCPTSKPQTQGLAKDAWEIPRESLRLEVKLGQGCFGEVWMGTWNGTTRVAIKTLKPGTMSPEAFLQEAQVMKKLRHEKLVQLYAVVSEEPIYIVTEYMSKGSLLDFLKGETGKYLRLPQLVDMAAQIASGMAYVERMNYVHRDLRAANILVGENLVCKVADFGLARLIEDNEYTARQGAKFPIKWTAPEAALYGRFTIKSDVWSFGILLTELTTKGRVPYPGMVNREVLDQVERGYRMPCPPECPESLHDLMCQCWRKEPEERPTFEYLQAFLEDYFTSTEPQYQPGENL
Serine/threonine-protein kinase 26, sequence (Q9P289 whole entry): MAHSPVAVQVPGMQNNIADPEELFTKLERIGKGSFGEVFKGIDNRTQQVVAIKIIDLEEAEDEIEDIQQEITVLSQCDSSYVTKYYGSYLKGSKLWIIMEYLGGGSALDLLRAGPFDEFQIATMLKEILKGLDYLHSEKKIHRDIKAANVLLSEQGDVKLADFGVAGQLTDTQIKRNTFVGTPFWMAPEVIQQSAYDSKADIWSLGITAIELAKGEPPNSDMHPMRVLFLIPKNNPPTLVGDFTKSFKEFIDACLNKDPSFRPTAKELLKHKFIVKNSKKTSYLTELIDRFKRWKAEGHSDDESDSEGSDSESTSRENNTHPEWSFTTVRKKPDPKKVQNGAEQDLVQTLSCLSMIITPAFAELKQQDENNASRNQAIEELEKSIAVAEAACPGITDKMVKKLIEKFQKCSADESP

As to `O=C1NC(=O)[C@@H](c2cn3c4c(cccc24)CCC3)[C@@H]1c1c[nH]c2ccccc12` [TIVANTINIB], the Kd in [1] is > 30 µM (inactive); in assay [2], > 30 µM (inactive); in assay [3], > 30 µM (inactive); in [4], 17 nM; in assay [5], > 30 µM (inactive); in assay [6] it was > 30 µM (inactive). Besides, the Kd in assay [7], in [8], in assay [9], in [10], in [11] and in [12] was > 30 µM (inactive) throughout. The Kd in assay [13] is > 30 µM (inactive); in assay [14], 0.511 µM (active); in [15], > 30 µM (inactive); in assay [16] it was > 30 µM (inactive); in assay [17], > 30 µM (inactive); in assay [18], > 30 µM (inactive).

Turning to `C[C@@H](NC(=O)c1ncnc(N)c1Cl)c1ncc(C(=O)Nc2cc(C(F)(F)F)c(Cl)cn2)s1` [TOVORAFENIB], the Kd was > 30 µM (inactive) in assay [1]; > 30 µM (inactive) in [2]; > 30 µM (inactive) in assay [3]; > 30000 nM (inactive) in assay [4]; > 30 µM (inactive) in [5]; > 30 µM (inactive) in [6]. In addition, the Kd in [7], in [8], in assay [9], in assay [10], in assay [11] and in assay [12] was > 30 µM (inactive) in each case. The Kd was > 30 µM (inactive) in assay [13]; > 30 µM (inactive) in [14]; > 30 µM (inactive) in [15]; > 30 µM (inactive) in [16]; > 30 µM (inactive) in [17]; 0.942 µM (active) in assay [18].
